Reference: US20250213649A1, “PEPTIDE HAVING ANTI-INFLAMMATORY AND ANTI-FIBROTIC ACTIVITIES AND USE THEREOF” (CAREGEN CO., LTD., priority 2022, published 2025)

Legend:
MRC-5 cells [1] = assay: Western blotting of LPS-induced inflammatory cytokine/signaling proteins, MRC-5 cells; type: cell-based; details: 5 μg/ml LPS, peptide 10, 50, 100, 500 μM, 24 hours, Western blot (FIG. 3)
Procedure: MRC-5 cells (lung fibroblast cells) were seeded at 2×10^5 cells/well in a 6-well plate and used in the experiment. After culturing for 1 day with a culture medium containing 10% FBS, the culture medium was replaced with a culture medium without containing FBS to induce starvation for 4 hours. Cells of a normal group without being treated with any substances, a group treated with 5 μg/ml of LPS (Sigma Aldrich) (negative control group), groups treated with 5 μg/ml of LPS and the peptide of Production Example 1 (10, 50, 100, 500 μM), and a group treated with 5 μg/ml of LPS and 10 μM of Dexamethasone (DEX) (positive control group) were treated with active substances and drugs respectively and then cultured for 24 hours. The cultured cells of each treatment group and control group were lysed by adding a lysis buffer, and then centrifugation was carried out at 4° C. at 12,000 rpm for 30 minutes to obtain proteins, which were subsequently quantified using a BCA Protein Assay kit (Sigma). The proteins were subjected to SDS-PAGE (sodium dodecyl sulfate-polyacrylamide gel electrophoresis) and then subjected to electrotransfer to a membrane. The membrane to which the proteins were attached was treated with 5% skim milk for blocking and then subjected to a reaction with a primary antibody overnight at 4° C. After washing with PBS-T, the membrane was subjected to a reaction with a secondary antibody at room temperature for 1 hour, washed again with PBS-T, and then visualized by a Western detection reagent (Elpis Biotech, Daejeon, Korea) using Gel Doc (Bio-Rad, Hercules, CA, USA). The antibodies used in the experiment are as follows. An Anti-IL-1β antibody (Cell signaling technology (CST), USA), an anti-IL-6 antibody (Santa Cruz Biotechnology, USA), an anti-pJNK antibody (Santa Cruz Biotechnology, USA), an anti-pERK antibody (Cell signaling technology (CST), USA), and an anti-β-Actin antibody (Santa Cruz Biotechnology, USA).

MRC-5 cells [2] = assay: Inhibition of fibrosis gene expression induced by TGF-β1, RT-PCR, MRC-5 cells; type: cell-based; details: 5 ng/ml TGF-β1, peptide 10, 50, 100, 500 μM, 3 hours, RT-PCR (FIG. 7)
Procedure: MRC-5 cells (lung fibroblast cells) were seeded at 2×10^5 cells/well in a 12-well plate and used in the experiment. After culturing for 1 day with a culture medium containing 10% FBS, the culture medium was replaced with a culture medium without containing FBS to induce starvation for 4 hours. Cells of a normal group without being treated with any substances, a group treated with 5 ng/ml of TGF-β1 (negative control group), groups treated with 5 ng/ml of TGF-β1 and the peptide of Production Example 1 (10, 50, 100, 500 μM), and a group treated with 5 μg/ml of LPS and 10 μM of Dexamethasone (DEX) (positive control group) were treated with the above-described active substances and drugs, and then RNA was extracted after 3 hours to carry out RT-PCR. RNA was extracted from MRC-5 cells using an easy-BLUE™ Total RNA extraction kit (Qiagen, Germany). The extracted RNA was converted into cDNA using RT-PCR premix (iNtRON Biotechnology, Seongnam, Korea). After preparing a reaction mixture with PCR premix (iNtRON Biotechnology, Seongnam, Korea) and primers for each gene, PCR was carried out using a PCR machine (Eppendorf, Germany). Next, the mRNA expression pattern was determined by agarose gel electrophoresis.

BALB/c mice = assay: LPS-induced acute lung inflammation model, ELISA of pro-inflammatory proteins in BALF; type: in vivo; details: BALB/c female mice, LPS 10 μg intranasal, peptide 0.5 mg, 1 mg intranasal, 24 hours (FIG. 11a-11d)
Procedure: BALB/c mice (Female/7W) were used in animal experiments, and an acute lung inflammation model was established by injection of LPS. As shown in [Table 5] below, 7-week-old BALB/c female mice were divided into 5 groups of 5 mice each, and then the experiment was carried out. On the 1st day, LPS (10 μg/50 μl/mouse) was administered intranasally to the G2 to G5 groups. 1 hour after LPS administration, the G3 and G4 groups were subjected to intranasal administration with the peptide of Production Example 1 (0.5 mg, 1 mg), and the G5 positive control group was subjected to intraperitoneal administration with Dexamethasone (100 μg). 24 hours after the administration of the active substance and the drug, the mice were sacrificed to obtain the bronchoalveolar lavage fluid and the lung tissue, which were used in the next analysis.
The collected BALF was subjected to the ELISA analysis of pro-inflammatory proteins. The supernatant obtained by centrifuging the collected BALF at 3,000 rpm for 10 minutes was subjected to analysis using a TNF-α Quantikine ELISA kit (R&D systems), an IL-1β Quantikine ELISA kit (R&D systems), an IL-6 Quantikine ELISA kit (R&D systems), and a Myeloperoxidase (MPO) Quantikine ELISA Kit (R&D systems) according to the instructions for use, and then the absorbance was measured at 450 nm using a microplate reader.

MRC-5 cells [3] = assay: Inhibition of fibrosis gene expression induced by LPS, RT-PCR, MRC-5 cells; type: cell-based; details: 5 μg/ml LPS, peptide 10, 50, 100, 500 μM, 3 hours, RT-PCR (FIG. 6)
Procedure: MRC-5 cells (lung fibroblast cells) were seeded at 2×10^5 cells/well in a 12-well plate and used in the experiment. After culturing for 1 day with a culture medium containing 10% FBS, the culture medium was replaced with a culture medium without containing FBS to induce starvation for 4 hours. Cells of a normal group without being treated with any substances, a group treated with 5 μg/ml of LPS (Sigma Aldrich) (negative control group), groups treated with 5 μg/ml of LPS and the peptide of Production Example 1 (10, 50, 100, 500 μM), and a group treated with 5 μg/ml of LPS and 10 μM of Dexamethasone (DEX) (positive control group) were treated with the above-described active substances and drugs respectively, and then RNA was extracted after 3 hours to carry out RT-PCR. RNA was extracted from MRC-5 cells using an easy-BLUE™ Total RNA extraction kit (Qiagen, Germany). The extracted RNA was converted into cDNA using RT-PCR premix (iNtRON Biotechnology, Seongnam, Korea). After preparing a reaction mixture with PCR premix (iNtRON Biotechnology, Seongnam, Korea) and primers for each gene, PCR was carried out using a PCR machine (Eppendorf, Germany). Next, the mRNA expression pattern was determined by agarose gel electrophoresis.

## KYLLVHRPYYRR [peptide of Production Example 1]
MRC-5 cells [1]
  expression of IL-1β (protein): decreased again the expression of IL-1β, IL-6, pJNK, and pERK in a concentration-dependent manner
  expression of IL-6 (protein): decreased again the expression of IL-1β, IL-6, pJNK, and pERK in a concentration-dependent manner
  expression of pERK: decreased again the expression of IL-1β, IL-6, pJNK, and pERK in a concentration-dependent manner
  expression of pJNK: decreased again the expression of IL-1β, IL-6, pJNK, and pERK in a concentration-dependent manner
MRC-5 cells [2]
  expression of Collagen 1A1 gene: decreased the expression of genes in a concentration-dependent manner
  expression of Fibronectin 1 gene: decreased the expression of genes in a concentration-dependent manner
  expression of Tenascin C gene: decreased the expression of genes in a concentration-dependent manner
  expression of α-SMA gene: decreased the expression of genes in a concentration-dependent manner
BALB/c mice
  expression level of IL-1β in BALF (ELISA): reduced the increased expression levels of the cytokines in a concentration-dependent manner
  expression level of IL-6 in BALF (ELISA): reduced the increased expression levels of the cytokines in a concentration-dependent manner
  expression level of Myeloperoxidase (MPO) in BALF (ELISA): reduced the increased expression levels of the cytokines in a concentration-dependent manner
  expression level of TNF-α in BALF (ELISA): reduced the increased expression levels of the cytokines in a concentration-dependent manner
MRC-5 cells [3]
  expression level of Collagen 1A1 gene: decreases again the expression levels of the α-SMA and Collagen 1A1 genes in a concentration-dependent manner
  expression level of α-SMA gene: decreases again the expression levels of the α-SMA and Collagen 1A1 genes in a concentration-dependent manner
